Measured values reported in EP4707280A1, “1,4-CINEOLE DERIVATIVE AND INTERMEDIATE THEREOF, HERBICIDE CONTAINING SAID DERIVATIVE AS ACTIVE INGREDIENT, METHOD FOR USING HERBICIDE, AND METHOD FOR PREPARING AGROCHEMICAL COMPOSITION” (HOKKO CHEMICAL INDUSTRY CO., LTD., priority 2023, dated 2024).

Legend:
Assay type in all cases: in vivo
[1] = system: Digitaria ciliaris; experiment: Test Example 4: herbicidal effect test by stem and leaf treatment in upland field; details: 120 g per 10 ares, sprayed seven days after sowing, upland soil, 14 days after application; for inhibition at 1200 g/ha: Digitaria ciliaris, read-out: weed inhibition rate
Method: (§1) The present test was conducted in duplicate for each chemical concentration group, and the weed inhibition rate (%) was determined 14 days after chemical application using the following formula (Math. 1). [formula]
(§2) Pots with an area of 36 cm^2 were filled with upland soil (alluvial loam), twenty seeds each of weeds of Digitaria ciliaris, Echinochloa crus-galli, and Amaranthus viridis were uniformly mixed with the top 1 cm layer of soil and the surface was lightly pressed down. Seven days after sowing, an emulsifiable concentrate prepared according to Formulation Example 5 using the compound shown below was diluted with water, and the diluted solution was sprayed onto the soil surface at a rate of 100 liters per 10 ares. The amount of the active ingredient to be applied was equivalent to 120 g per 10 ares. Fourteen days after chemical application, the herbicidal effect was evaluated according to the same criteria as in Test Example 1.

[2] = system: Digitaria ciliaris; experiment: Test Example 3: herbicidal effect test by soil application in upland field; details: 120 g per 10 ares, sprayed one day after sowing, 14 days after application; for inhibition at 1200 g/ha: Digitaria ciliaris, read-out: weed inhibition rate
Method: as §1
as §2, with “crus-galli, Chenopodium album,” for “crus-galli,”, “One day” for “Seven days”

[3] = system: Echinochloa crus-galli; experiment: as above; details: 120 g per 10 ares, sprayed one day after sowing, 14 days after application; for inhibition at 1200 g/ha: Echinochloa crus-galli, read-out: weed inhibition rate
Method: as §1
as §2, with “crus-galli, Chenopodium album,” for “crus-galli,”, “One day” for “Seven days”

[4] = system: Echinochloa crus-galli; experiment: Test Example 4: herbicidal effect test by stem and leaf treatment in upland field; details: 120 g per 10 ares, sprayed seven days after sowing, upland soil, 14 days after application; for inhibition at 1200 g/ha: Echinochloa crus-galli, read-out: weed inhibition rate
[5] = system: Echinochloa crus-galli var. formosensis; experiment: Test Example 1: herbicidal effect test by soil application in paddy rice; details: 120 g active ingredient per 10 ares, applied immediately after sowing, flooded pots, 14 days after application; for pest or weed control at 1200 g/ha: Echinochloa crus-galli, soil, 336 h, read-out: weed inhibition rate
Method: Wagner pots with an area of […] were filled with paddy soil, followed by addition of water and incorporation of chemical fertilizer (N:P:K = 16:16:16), after which puddling was performed. After that, seeds of Echinochloa crus-galli var. formosensis, broad-leaved weeds ([…] Monochoria vaginalis), and Scirpus juncoides were sown at a depth of 0 cm to 1 cm, 30 seeds each. Immediately after sowing, the pots were flooded and a water depth of approximately 3 cm was maintained. Subsequent management was conducted in a glass greenhouse. Immediately thereafter, an emulsifiable concentrate prepared according to Formulation Example 5 using the compound shown below was diluted with water, and a specified amount of the diluted solution was applied by dropper. The amount of the active ingredient to be applied was equivalent to 120 g per 10 ares.

[6] = system: Echinochloa crus-galli var. formosensis; experiment: Test Example 2: herbicidal effect test by application during growth period of paddy rice; details: 120 g per 10 ares, applied seven days after sowing, flooded pots, 14 days after application; for inhibition at 1200 g/ha: Echinochloa crus-galli, read-out: weed inhibition rate
Method: as §1
Wagner pots with an area of […] were filled with paddy soil, followed by addition of water and incorporation of chemical fertilizer (N:P:K = 16:16:16), after which puddling was performed. After that, seeds of Echinochloa crus-galli var. formosensis, broad-leaved weeds (Monochoria vaginalis), and Scirpus juncoides were sown at a depth of 0 cm to 1 cm, 30 seeds each. Immediately after sowing, the pots were flooded and a water depth of approximately 3 cm was maintained. Subsequent management was conducted in a glass greenhouse. Seven days after sowing, an emulsifiable concentrate prepared according to Formulation Example 5 using the compound shown below was diluted with water, and a specified amount of the diluted solution was applied by dropper. The amount of the active ingredient to be applied was equivalent to 120 g per 10 ares. The test was conducted in duplicate for each chemical concentration group, and the herbicidal effect was evaluated 14 days after chemical application using the same criteria as in Test Example 1.

CC(C)[C@@]12C[C@H](OCc3ccccc3Br)[C@@](C)(C[C@H]1Br)O2 [1-1034, (1R,2S,4S,5R)-5-bromo-2-[(2-bromophenyl)methoxy]-1-methyl-4-isopropyl-7-oxabicyclo[2.2.1]heptane]
≥ 80%: inhibition at 1200 g/ha [1] | inhibition at 1200 g/ha [2] | inhibition at 1200 g/ha [3] | inhibition at 1200 g/ha [4] | pest or weed control at 1200 g/ha [5] | inhibition at 1200 g/ha [6]

CC(C)[C@@]12C[C@H](OCc3ccccc3I)[C@@](C)(C[C@H]1Br)O2 [1-1037, (1R,2S,4S,5R)-5-bromo-2-[(2-iodophenyl)methoxy]-1-methyl-4-isopropyl-7-oxabicyclo[2.2.1]heptane]
≥ 80%: inhibition at 1200 g/ha [1] | inhibition at 1200 g/ha [2] | inhibition at 1200 g/ha [3] | inhibition at 1200 g/ha [4] | pest or weed control at 1200 g/ha [5] | inhibition at 1200 g/ha [6]

CC(C)[C@@]12C[C@H](OCc3ccccc3C#N)[C@@](C)(C[C@H]1Br)O2 [1-1043, 2-[[(1R,2S,4S,5R)-5-bromo-1-methyl-4-isopropyl-7-oxabicyclo[2.2.1]heptan-2-yl]oxymethyl]benzonitrile]
≥ 80%: inhibition at 1200 g/ha [1] | inhibition at 1200 g/ha [2] | inhibition at 1200 g/ha [3] | inhibition at 1200 g/ha [4] | pest or weed control at 1200 g/ha [5] | inhibition at 1200 g/ha [6]

CC(C)[C@@]12C[C@H](OCc3c(F)cccc3F)[C@@](C)(C[C@H]1Br)O2 [1-1052, (1R,28,48,5R)-5-bromo-2-[(2,6-difluorophenyl)methoxy]-1-methyl-4-isopropyl-7-oxabicyclo[2.2.1]heptane]
≥ 80%: weed inhibition rate [1] | weed inhibition rate [2] | weed inhibition rate [3] | weed inhibition rate [4] | weed inhibition rate [5] | weed inhibition rate [6]

CC(C)[C@@]12C[C@H](OCc3c(Cl)cccc3Cl)[C@@](C)(C[C@H]1Br)O2 [1-1053, (1R,2S,4S,5R)-5-bromo-2-[(2,6-dichlorophenyl)methoxy]-1-methyl-4-isopropyl-7-oxabicyclo[2.2.1]heptane]
≥ 80%: inhibition at 1200 g/ha [1] | inhibition at 1200 g/ha [2] | inhibition at 1200 g/ha [3] | inhibition at 1200 g/ha [4] | pest or weed control at 1200 g/ha [5] | inhibition at 1200 g/ha [6]

CC(C)[C@@]12C[C@H](OCc3c(F)cccc3Cl)[C@@](C)(C[C@H]1Br)O2 [1-1054, (1R,2S,4S,5R)-5-bromo-2-[(2-chloro-6-fluorophenyl)methoxy]-1-methyl-4-isopropyl-7-oxabicyclo[2.2.1]heptane]
≥ 80%: inhibition at 1200 g/ha [1] | inhibition at 1200 g/ha [2] | inhibition at 1200 g/ha [3] | inhibition at 1200 g/ha [4] | pest or weed control at 1200 g/ha [5] | inhibition at 1200 g/ha [6]

CC(C)[C@@]12C[C@H](OCc3ccccn3)[C@@](C)(C[C@H]1Br)O2 [1-1059, 2-[[(1R,2S,4S,5R)-5-bromo-1-methyl-4-isopropyl-7-oxabicyclo[2.2.1]heptan-2-yl]oxymethyl]pyridine]
≥ 80%: inhibition at 1200 g/ha [1] | inhibition at 1200 g/ha [2] | inhibition at 1200 g/ha [3] | inhibition at 1200 g/ha [4] | pest or weed control at 1200 g/ha [5] | inhibition at 1200 g/ha [6]

CC(C)=CCO[C@H]1C[C@@]2(C(C)C)O[C@]1(C)C[C@H]2I [1-1073, (1R,2S,4S,5R)-5-iodo-1-methyl-2-(3-methylbut-2-enoxy)-4-isopropyl-7-oxabicyclo[2.2.1]heptane]
≥ 80%: inhibition at 1200 g/ha [1] | inhibition at 1200 g/ha [2] | inhibition at 1200 g/ha [3] | inhibition at 1200 g/ha [4] | pest or weed control at 1200 g/ha [5] | inhibition at 1200 g/ha [6]

COc1ccccc1CO[C@H]1C[C@@]2(C(C)C)O[C@]1(C)C[C@H]2I [1-1088, (1R,2S,4S,5R)-5-iodo-2-[(2-methoxyphenyl)methoxy]-1-methyl-4-isopropyl-7-oxabicyclo[2.2.1]heptane]
≥ 80%: inhibition at 1200 g/ha [1] | inhibition at 1200 g/ha [2] | inhibition at 1200 g/ha [3] | inhibition at 1200 g/ha [4] | pest or weed control at 1200 g/ha [5] | inhibition at 1200 g/ha [6]

CC(C)[C@@]12C[C@H](OCc3ccccc3F)[C@@](C)(C[C@H]1I)O2 [1-1094, (1R,2S,4S,5R)-2-[(2-fluorophenyl)methoxy]-5-iodo-1-methyl-4-isopropyl-7-oxabicyclo[2.2.1]heptane]
≥ 80%: inhibition at 1200 g/ha [1] | inhibition at 1200 g/ha [2] | inhibition at 1200 g/ha [3] | inhibition at 1200 g/ha [4] | pest or weed control at 1200 g/ha [5] | inhibition at 1200 g/ha [6]

CC(C)[C@@]12C[C@H](OCc3ccccc3Cl)[C@@](C)(C[C@H]1I)O2 [1-1097, (1R,2S,4S,5R)-2-[(2-chlorophenyl)methoxy]-5-iodo-1-methyl-4-isopropyl-7-oxabicyclo[2.2.1]heptane]
≥ 80%: inhibition at 1200 g/ha [1] | inhibition at 1200 g/ha [2] | inhibition at 1200 g/ha [3] | inhibition at 1200 g/ha [4] | pest or weed control at 1200 g/ha [5] | inhibition at 1200 g/ha [6]

CC(C)[C@@]12C[C@H](OCc3ccccc3C#N)[C@@](C)(C[C@H]1I)O2 [1-1109, 2-[[(1R,2S,4S,5R)-5-iodo-1-methyl-4-isopropyl-7-oxabicyclo[2.2.1]heptan-2-yl]oxymethyl]benzonitrile]
≥ 80%: inhibition at 1200 g/ha [1] | inhibition at 1200 g/ha [2] | inhibition at 1200 g/ha [3] | inhibition at 1200 g/ha [4] | pest or weed control at 1200 g/ha [5] | inhibition at 1200 g/ha [6]

Cc1cccc(C)c1CO[C@H]1C[C@@]2(C(C)C)O[C@]1(C)C[C@H]2I [1-1118, (1R,2S,4S,5R)-2-[(2,6-dimethylphenyl)methoxy]-5-iodo-1-methyl-4-isopropyl-7-oxabicyclo[2.2.1]heptane]
≥ 80%: inhibition at 1200 g/ha [1] | inhibition at 1200 g/ha [2] | inhibition at 1200 g/ha [3] | inhibition at 1200 g/ha [4] | pest or weed control at 1200 g/ha [5] | inhibition at 1200 g/ha [6]

CC(C)[C@@]12C[C@H](OCc3c(Cl)cccc3Cl)[C@@](C)(C[C@H]1I)O2 [1-1120, (1R,2S,4S,5R)-2-[(2,6-dichlorophenyl)methoxy]-5-iodo-1-methyl-4-isopropyl-7-oxabicyclo[2.2.1]heptane]
≥ 80%: inhibition at 1200 g/ha [1] | inhibition at 1200 g/ha [2] | inhibition at 1200 g/ha [3] | inhibition at 1200 g/ha [4] | pest or weed control at 1200 g/ha [5] | inhibition at 1200 g/ha [6]

CC(C)[C@@]12C[C@H](OCc3c(F)cccc3Cl)[C@@](C)(C[C@H]1I)O2 [1-1121, (1R,2S,4S,5R)-2-[(2-chloro-6-fluorophenyl)methoxy]-5-iodo-1-methyl-4-isopropyl-7-oxabicyclo[2.2.1]heptane]
≥ 80%: inhibition at 1200 g/ha [1] | inhibition at 1200 g/ha [2] | inhibition at 1200 g/ha [3] | inhibition at 1200 g/ha [4] | pest or weed control at 1200 g/ha [5] | inhibition at 1200 g/ha [6]

Cc1cccc(COC2CC3(C(C)C)OC2(C)CC3Br)c1 (stereo not drawn) [1-1344, 5-bromo-1-methyl-2-[(3-methylphenyl)methoxy]-4-isopropyl-7-oxabicyclo[2.2.1]heptane]
≥ 80%: inhibition at 1200 g/ha [1] | inhibition at 1200 g/ha [2] | inhibition at 1200 g/ha [3] | inhibition at 1200 g/ha [4] | pest or weed control at 1200 g/ha [5] | inhibition at 1200 g/ha [6]
